Values quoted from earlier work in patent US10463673B2, “Nanoparticulate meloxicam formulations” (Recro Pharma, Inc., priority 2003, dated 2019).
Where two headings read alike, the source gives them in different places.

Columns and labels:
[1] = oral; for Cmax, mean (% CV) / tmax, mean (% CV): 15 mg capsules
[2] = Single dose, hepatic insufficiency (Fasted)
[3] = Single dose, renal failure (Fasted)
[4] = Steady state, elderly females (Fed)
[5] = Steady state, elderly males (Fed)

- Cmax, mean (% CV) [1, 2]: 0.84 (29) μg/mL
- tmax, mean (% CV) [1, 2]: 10 (87) h
- Cmax, mean (% CV) [1, 3]: 0.59 (36) μg/mL
- tmax, mean (% CV) [1, 3]: 4 (65) h
- Cmax, mean (% CV) [1, 4]: 3.2 (24) μg/mL
- tmax, mean (% CV) [1, 4]: 6 (27) h
- Cmax, mean (% CV) [1, 5]: 2.3 (59) μg/mL
- tmax, mean (% CV) [1, 5]: 5 (12) h
- time of second meloxicam concentration peak post-dose ([1]; fasted steady state conditions): twelve to fourteen
- solubility in methanol (methanol): very slightly soluble
- solubility in strong acids and bases (strong acids and bases, compared with water): higher solubility
- solubility in water (water): practically insoluble
SMILES: Cc1cnc(NC(=O)C2=C(O)c3ccccc3S(=O)(=O)N2C)s1 [Meloxicam, 4-hydroxy-2-methyl-N-(5-methyl-2-thiazolyl)-2-H-1,2-benzothiazine-3-carboxamide 1,1-dioxide]
- COX-2/COX-1 inhibition ratio (COX-2): 0.09
